The text below walks through data of ChEMBL document CHEMBL5291721, “A preclinical secondary pharmacology resource illuminates target-adverse drug reaction associations of marketed drugs” (Nat Commun, 2023).

SMILES strings stand for the structures.

The target in assay [1] is T1, 5-hydroxytryptamine receptor 1A (Homo sapiens, UniProt P08908).
T1 sequence (P08908 whole entry): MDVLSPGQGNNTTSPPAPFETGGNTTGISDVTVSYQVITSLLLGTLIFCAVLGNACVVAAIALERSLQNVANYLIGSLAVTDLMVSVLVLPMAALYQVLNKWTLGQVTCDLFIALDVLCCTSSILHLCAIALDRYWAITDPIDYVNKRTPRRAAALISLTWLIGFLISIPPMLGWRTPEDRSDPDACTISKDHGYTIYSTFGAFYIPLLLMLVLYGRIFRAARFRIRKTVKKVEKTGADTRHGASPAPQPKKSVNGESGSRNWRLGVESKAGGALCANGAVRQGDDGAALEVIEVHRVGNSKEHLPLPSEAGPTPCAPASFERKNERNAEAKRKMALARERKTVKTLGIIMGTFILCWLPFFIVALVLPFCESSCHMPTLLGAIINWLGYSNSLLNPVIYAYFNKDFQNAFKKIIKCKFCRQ
The assay is classed as functional, cell-based.

For assay [2], the target named is T2, 5-hydroxytryptamine receptor 2A (Homo sapiens, UniProt P28223). The class given is functional, cell-based.
T2 sequence (P28223 whole entry): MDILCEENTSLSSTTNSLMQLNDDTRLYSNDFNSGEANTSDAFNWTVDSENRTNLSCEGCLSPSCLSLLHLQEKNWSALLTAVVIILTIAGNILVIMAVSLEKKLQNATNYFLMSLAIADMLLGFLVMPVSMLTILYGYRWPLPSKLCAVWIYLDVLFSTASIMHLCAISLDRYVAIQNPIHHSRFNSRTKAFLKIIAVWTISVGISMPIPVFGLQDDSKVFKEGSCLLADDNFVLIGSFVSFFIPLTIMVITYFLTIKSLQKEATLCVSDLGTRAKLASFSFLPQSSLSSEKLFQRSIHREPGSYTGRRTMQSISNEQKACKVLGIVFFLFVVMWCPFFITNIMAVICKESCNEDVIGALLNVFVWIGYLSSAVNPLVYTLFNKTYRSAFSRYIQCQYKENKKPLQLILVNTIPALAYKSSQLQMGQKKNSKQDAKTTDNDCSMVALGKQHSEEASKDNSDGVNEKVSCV
The target in assay [3] is T2, 5-hydroxytryptamine receptor 2A. The class given is functional, cell-based. This is another data set of the same source.
In a further assay the target is T3, Progesterone receptor (Homo sapiens, UniProt P06401).
T3 sequence (P06401 whole entry): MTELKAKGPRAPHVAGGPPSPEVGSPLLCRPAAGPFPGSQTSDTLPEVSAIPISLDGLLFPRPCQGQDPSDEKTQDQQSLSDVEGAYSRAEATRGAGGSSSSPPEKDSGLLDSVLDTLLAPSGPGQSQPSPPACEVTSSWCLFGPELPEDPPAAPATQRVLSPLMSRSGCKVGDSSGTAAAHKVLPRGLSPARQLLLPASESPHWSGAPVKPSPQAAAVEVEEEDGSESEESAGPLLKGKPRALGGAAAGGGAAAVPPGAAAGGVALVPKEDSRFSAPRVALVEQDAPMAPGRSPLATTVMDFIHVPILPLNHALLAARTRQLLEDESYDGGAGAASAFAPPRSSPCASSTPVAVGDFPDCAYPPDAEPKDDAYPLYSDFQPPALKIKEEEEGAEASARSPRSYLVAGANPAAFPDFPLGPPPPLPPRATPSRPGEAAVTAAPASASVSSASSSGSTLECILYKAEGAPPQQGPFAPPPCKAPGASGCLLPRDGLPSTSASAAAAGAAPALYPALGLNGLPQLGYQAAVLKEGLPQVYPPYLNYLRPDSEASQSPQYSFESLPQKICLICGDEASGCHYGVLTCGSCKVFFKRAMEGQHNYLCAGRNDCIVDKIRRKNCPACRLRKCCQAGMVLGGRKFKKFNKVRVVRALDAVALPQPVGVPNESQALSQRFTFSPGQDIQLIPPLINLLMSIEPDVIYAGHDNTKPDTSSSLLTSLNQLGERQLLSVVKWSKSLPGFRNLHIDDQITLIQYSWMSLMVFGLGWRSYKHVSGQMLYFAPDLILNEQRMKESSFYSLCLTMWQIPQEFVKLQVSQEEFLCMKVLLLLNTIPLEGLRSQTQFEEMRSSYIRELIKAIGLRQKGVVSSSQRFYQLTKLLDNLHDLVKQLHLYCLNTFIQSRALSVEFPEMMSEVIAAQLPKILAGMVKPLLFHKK
The class given is functional.

The target in assay [4] is T4, Alpha-1A adrenergic receptor (Homo sapiens, UniProt P35348).
T4 sequence (P35348 whole entry): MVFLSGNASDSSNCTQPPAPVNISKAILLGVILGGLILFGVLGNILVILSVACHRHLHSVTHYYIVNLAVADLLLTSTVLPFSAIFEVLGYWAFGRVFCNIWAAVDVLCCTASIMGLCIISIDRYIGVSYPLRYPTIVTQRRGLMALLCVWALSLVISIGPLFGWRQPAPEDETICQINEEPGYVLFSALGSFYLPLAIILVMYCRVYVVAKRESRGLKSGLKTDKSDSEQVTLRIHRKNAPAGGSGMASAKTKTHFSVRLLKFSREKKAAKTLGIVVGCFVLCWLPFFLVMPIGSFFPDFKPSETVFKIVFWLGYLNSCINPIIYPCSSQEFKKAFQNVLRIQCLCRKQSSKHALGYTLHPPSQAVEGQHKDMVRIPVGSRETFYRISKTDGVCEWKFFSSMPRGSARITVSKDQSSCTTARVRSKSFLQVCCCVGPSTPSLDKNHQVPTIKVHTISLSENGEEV

For assay [5], the target named is T4, Alpha-1A adrenergic receptor. This is another data set of the same source.
Assay [6] addresses T1, 5-hydroxytryptamine receptor 1A.
The target of a further assay is T5, B1 bradykinin receptor (Homo sapiens, UniProt P46663).
T5 sequence (P46663 whole entry): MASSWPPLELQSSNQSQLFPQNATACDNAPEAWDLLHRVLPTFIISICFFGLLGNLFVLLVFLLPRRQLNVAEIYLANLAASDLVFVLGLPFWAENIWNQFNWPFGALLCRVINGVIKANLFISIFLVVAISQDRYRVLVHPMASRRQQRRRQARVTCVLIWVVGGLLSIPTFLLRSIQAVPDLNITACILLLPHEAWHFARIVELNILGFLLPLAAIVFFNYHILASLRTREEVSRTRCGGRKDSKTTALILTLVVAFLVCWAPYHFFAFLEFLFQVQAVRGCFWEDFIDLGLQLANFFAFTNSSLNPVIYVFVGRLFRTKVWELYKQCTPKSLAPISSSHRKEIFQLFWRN

The target in assay [7] is T6, Endothelin receptor type B (Homo sapiens, UniProt P24530).
T6 sequence (P24530 whole entry): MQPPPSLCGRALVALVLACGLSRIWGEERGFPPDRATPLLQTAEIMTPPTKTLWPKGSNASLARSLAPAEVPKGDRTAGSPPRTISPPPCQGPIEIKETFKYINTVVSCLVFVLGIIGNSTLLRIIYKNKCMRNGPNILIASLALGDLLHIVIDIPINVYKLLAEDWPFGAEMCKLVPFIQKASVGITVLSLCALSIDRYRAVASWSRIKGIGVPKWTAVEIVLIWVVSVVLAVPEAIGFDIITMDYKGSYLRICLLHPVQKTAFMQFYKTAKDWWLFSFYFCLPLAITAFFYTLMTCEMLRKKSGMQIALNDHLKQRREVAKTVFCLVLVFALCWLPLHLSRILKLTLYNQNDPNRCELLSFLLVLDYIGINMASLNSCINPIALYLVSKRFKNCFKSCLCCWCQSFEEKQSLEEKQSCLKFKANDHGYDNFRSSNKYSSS

For assay [8], the target named is Neurotensin receptor type 1 (Homo sapiens, UniProt P30989).
Sequence of Neurotensin receptor type 1 (P30989 whole entry): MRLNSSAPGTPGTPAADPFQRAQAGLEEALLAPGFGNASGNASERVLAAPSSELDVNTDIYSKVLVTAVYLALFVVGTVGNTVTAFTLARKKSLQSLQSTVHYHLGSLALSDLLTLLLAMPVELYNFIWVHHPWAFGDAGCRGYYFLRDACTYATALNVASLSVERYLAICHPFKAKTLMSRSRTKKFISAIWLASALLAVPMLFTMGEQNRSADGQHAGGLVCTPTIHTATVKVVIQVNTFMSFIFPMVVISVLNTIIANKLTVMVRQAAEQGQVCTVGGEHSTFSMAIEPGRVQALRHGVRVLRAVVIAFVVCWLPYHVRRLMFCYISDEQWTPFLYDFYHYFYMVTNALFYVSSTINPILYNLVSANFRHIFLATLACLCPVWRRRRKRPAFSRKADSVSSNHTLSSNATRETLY
Note: assay procedure not described here.

On to `CC[C@@H](C(N)=O)N1CCCC1=O`, for which the concentration at half-maximal activity (AC50) (in assay [1]; in assay [2]; in assay [3]; at Progesterone receptor) was over 30 µM in each case.

With `CCC(CC)(CC(=O)Nc1cccc(/C=C/c2nc(C3CCC3)cs2)c1)C(=O)O`, the concentration at half-maximal activity (AC50) (in general, the midpoint of the concentration-response curve, whichever way the signal moves) at Progesterone receptor was over 30 µM.

In assay [4], `Nc1ccncc1N` [AMIFAMPRIDINE] returned a concentration at half-maximal activity (AC50) of over 30 µM.

Consider `CCCC1O[C@@H]2C[C@H]3[C@@H]4CCC5=CC(=O)C=C[C@]5(C)[C@H]4[C@@H](O)C[C@]3(C)[C@]2(C(=O)CO)O1` (stereo partly specified) [BUDESONIDE], for which the concentration at half-maximal activity (AC50) in assay [5] and in [1] was over 10 µM each time.

As to `C=CCN1C[C@H](C(=O)N(CCCN(C)C)C(=O)NCC)C[C@@H]2c3cccc4[nH]cc(c34)C[C@H]21` [CABERGOLINE], the half-maximal activity concentration (AC50) in [5] was 3.62 µM; in [2] it was 0.0626 µM; at Progesterone receptor, over 10 µM; in assay [6], 0.073 µM.

`CN1CCN(C2=Nc3ccccc3Sc3ccc(Cl)cc32)CC1` [CLOTHIAPINE]: the AC50 in assay [2] is over 30 µM; in assay [3], 1 µM.

For the molecule `CN(C)CCC=C1c2ccccc2C=Cc2ccccc21` [CYCLOBENZAPRINE], the AC50 in assay [5] is 0.261 µM; at B1 bradykinin receptor, over 30 µM; in assay [7] it was over 30 µM; in [1] it was over 10 µM; in [8] it was over 30 µM; in assay [6], 4.94 µM.

For `CCOc1ccc(Cc2cc([C@@H]3O[C@H](CO)[C@@H](O)[C@H](O)[C@H]3O)ccc2Cl)cc1` [DAPAGLIFLOZIN], the AC50 in assay [5] and in assay [6] was over 10 µM each time.

For the molecule `CN(C)CC/C=C1\c2ccccc2CSc2ccccc21` [DOTHIEPIN], the AC50 in [5] is 3.2 µM; in assay [2], over 30 µM; in assay [3], 4.8 µM.

Turning to `CC[C@H]1CN2CCc3cc(OC)c(OC)cc3[C@@H]2C[C@@H]1C[C@H]1NCCc2cc(OC)c(OC)cc21` [EMETINE], the figures for the concentration at half-maximal activity (AC50) (in assay [5]; in assay [4]; on Progesterone receptor) were 6 µM, 2.51 µM and over 30 µM, respectively.

As to `COc1ccc(C(=O)Nc2ccccc2CCC2CCCCN2C)cc1` (stereo unspecified) [ENCAINIDE], the concentration at half-maximal activity (AC50) was over 10 µM in [5]; over 30 µM at B1 bradykinin receptor; over 30 µM in assay [7]; over 10 µM in assay [1]; over 30 µM in assay [2]; 2.2 µM in assay [3]. Moreover, the AC50 in assay [8] was over 30 µM; in assay [6], over 10 µM.

Turning to `O=[N+]([O-])O[C@@H]1CO[C@H]2[C@@H]1OC[C@@H]2O` [ISOSORBIDE MONONITRATE], the AC50 is over 10 µM in assay [5]; over 30 µM on B1 bradykinin receptor; over 30 µM in [7]; over 10 µM in assay [1]; over 30 µM in assay [8]; over 10 µM in [6].

In the case of `Cc1cc(C)c(NC(=O)CN(CC(=O)O)CC(=O)O)c(C)c1Br` [MEBROFENIN], the concentration at half-maximal activity (AC50) in [4], in assay [2] and in assay [3] was over 30 µM each time.

On to `COc1ccccc1N1CCN(CC(O)COc2cccc3ccccc23)CC1` (stereo unspecified) [NAFTOPIDIL], for which the concentration at half-maximal activity (AC50) in [5] is 0.543 µM; in assay [4] it was 0.02 µM; in assay [1], 1.2 µM; in assay [2] it was over 30 µM; in assay [3], 9.2 µM; on Progesterone receptor, over 30 µM.

For the molecule `COc1cc2nc(N3CCN(C(=O)c4ccco4)CC3)nc(N)c2cc1OC` [PRAZOSIN], the AC50 (at B1 bradykinin receptor; in [7]; in assay [8]) was over 30 µM each time.

On to `O=[N+]([O-])c1cn2c(n1)OC[C@@H](OCc1ccc(OC(F)(F)F)cc1)C2` [PRETOMANID], for which the AC50 is over 30 µM on B1 bradykinin receptor, over 30 µM in assay [7], over 10 µM in assay [8] and over 10 µM in [6].

With `Cc1oc(=O)oc1CN1CCN(c2cc3c(cc2F)c(=O)c(C(=O)O)c2n3C(C)S2)CC1` (stereo unspecified) [PRULIFLOXACIN], the AC50 in assay [4], in [2] and in assay [3] was over 30 µM throughout.

Take `CCCCCNC(=N)N/N=C/c1c[nH]c2ccc(OC)cc12` [TEGASEROD]: the half-maximal activity concentration (AC50) in assay [5] is 2.05 µM; at B1 bradykinin receptor it was over 30 µM; in [7], over 30 µM; in assay [1] it was 0.87 µM; in assay [2], over 30 µM; in [3], 1.5 µM. For the same molecule, the results for the AC50 (in assay [8]; on Progesterone receptor; in [6]) were over 30 µM, over 30 µM and 0.169 µM, respectively.

As to `COC1=C(OC)C(=O)C(C/C=C(\C)CC/C=C(\C)CC/C=C(\C)CC/C=C(\C)CC/C=C(\C)CC/C=C(\C)CC/C=C(\C)CC/C=C(\C)CC/C=C(\C)CCC=C(C)C)=C(C)C1=O` [UBIDECARENONE], the AC50 in assay [2] and in [3] was over 30 µM throughout.

As for `C=CCCCCCCCCC(=O)O` [UNDECYLENIC ACID], the half-maximal activity concentration (AC50) in [4] was over 30 µM.

In the case of `CCOc1ccccc1OCC1CNCCO1` (stereo unspecified) [VILOXAZINE], the AC50 was 11.2 µM in assay [5]; over 30 µM at B1 bradykinin receptor; over 30 µM in [7]; over 10 µM in [1]; over 30 µM in [8]; over 10 µM in assay [6].

As for `CN(C)CCc1c[nH]c2ccc(C[C@H]3COC(=O)N3)cc12` [ZOLMITRIPTAN], the AC50 in assay [2] is 14 µM; at Progesterone receptor, over 30 µM.
